# Measured values reported in a melting point compilation (Tetko et al.; mined from patent text by program, amines drawn as free bases though some values may be those of a salt).
row,SMILES,melting point [°C]
1,CSc1nc(O)cc(O)n1,> 250
2,Cc1cn2cccc(C=O)c2n1,123 to 125
3,O=C1c2ccccc2OC2CCCON12 (configuration not stated),139 to 141
4,Cc1nc2c(C#N)ncn2c(Cl)c1-c1c(F)cc(F)cc1F,183
5,CCC1(C)NC(=O)c2ccccc2O1 (configuration not stated),76 to 78
6,OCC1=NOC(c2ccccc2)C1 (configuration not stated),73 to 74
7,CN(C)Nc1nc(Cl)nc2c1ncn2C1OC(CCl)C(O)C1O (configuration not stated),188 to 189
8,CC(Br)C(=C(C#N)C#N)c1ccccc1 (configuration not stated),103 to 104
9,CN1C(=O)C(N)C(=O)N(C23CC4CC(CC(C4)C2)C3)c2ccccc21 (configuration not stated),194
10,CC(C=O)=CC=CC(C)=CCO,42 to 45
11,OC1CCC2(CC1)Cc1ccccc1C2,76 to 78
12,CCOCOC1(C(=O)CO)C(CC)CC2C3CC(CC)C4=CC(=O)C=CC4(C)C3C(O)CC21C (configuration not stated),100 to 102
13,CC(C)CN1C(=O)C(C)(C)C(=O)Nc2cc(C#N)ccc21,204 to 205
14,CCCCNC(=O)NC(=O)c1cc([N+](=O)[O-])cnc1C,111 to 112
15,Cc1cnc(C(=O)NC(C)C)c(C(=O)O)c1,95 to 105
16,COc1ccc(CC2C3=C(CCCC3)CCN2C(=O)C2CCC2)cc1 (configuration not stated),89 to 91
17,O=[N+]([O-])c1nccn1CC(O)CN1C2CCCCCC21 (configuration not stated),91 to 91.5
18,CCOC(=O)Nc1cc(-n2cc(C(=O)OCC)c(=O)c3c(OCc4ccccc4)c(F)c(F)cc32)c(F)cc1F,130 to 134
19,CCOC(=O)c1c(C)nc(NCCCN(C)C)c2nnn(CC)c12,30 to 34

# Second part, the molecule after the results:
row,melting point [°C],SMILES
1,62 to 63,COC(=O)C[C@@H](CC(=O)C=Cc1c(-c2ccc(F)cc2)c(-c2ccccc2)c(C(=O)NCc2ccc(F)cc2)n1C(C)C)O[Si](C)(C)C(C)(C)C
2,157 to 159,NC(=S)Nc1ccccc1-c1cccc(F)c1
3,101 to 102,c1ccc(CNc2nccc3ccccc23)cc1
4,103 to 105,O=c1cc(-c2ccccc2)oc2ncccc12
5,258 to 263,O=C(Nc1cccc(Cl)c1)Nc1ccc(Br)cc1-c1nnn[nH]1
6,42 to 43,COc1ccc(N2C3CCC(C(=O)C3)C2c2ccc(Cl)cc2)cc1OC (configuration not stated)
7,139 to 141,C[Si](C)(C)c1cccc(Br)c1C(=O)O
8,248 to 253,CCOC(=O)c1n[nH]c2c(=S)[nH]c3cc(Cl)ccc3c(=O)c12
9,237 to 240,O=C1NC(=O)c2c1c(-c1ccccc1Cl)cc1oc3cc(OS(=O)(=O)C(F)(F)F)c(O)cc3c21
10,143 to 144,O=c1cc2c(nn1-c1ccc(Cl)cc1)-c1cc(Br)sc1CCC2
11,260,COc1ccc(Nc2cc(-c3ccc(F)cc3)nc3ccccc23)cc1Cl
12,167,Nc1ccc2ccc(SCc3ccccc3)nc2n1
13,96.5,O=[N+]([O-])c1ccc(-n2nnnc2Cl)cc1
14,183 to 184,CN1CCN(C2=Nc3cc(Br)ccc3Nc3nn(C)nc32)CC1
15,74.5 to 75,N#Cc1cccc2c1CCc1ccsc1-2
16,163,OC1CCCc2nc3cc(Cl)ccc3c(NCc3ccccc3)c21 (configuration not stated)
17,79,Cc1ccc(S(=O)(=O)N2CCCC2c2cccc(C)c2)cc1 (racemic)
18,153 to 156,CCC12CCC3=C(CCc4cc(O)ccc43)C1=CCC2=O (configuration not stated)
19,158 to 160,CC(=O)NCC1CN(c2ccc(-n3cnc(Cn4cccn4)c3)c(F)c2)C(=O)O1 (configuration not stated)
20,226,CC(C)(C)OC(=O)Nc1cccc(Cn2nc(C(=O)O)c3c2-c2ccc(OCc4cncnc4)cc2CC3)c1
21,117 to 120,CC(C)(C#N)c1cc(C(O)c2cccnc2)cc(C(C)(C)C#N)c1 (configuration not stated)
22,142 to 143,CC(=O)NCCCC(=O)N1CCCC2=C1CCc1cc(Cl)ccc12
23,166 to 169,O=C(O)COc1c(-c2cccc(C(F)(F)F)c2)cc(C(=O)NCCCCCCc2ccccc2)cc1-c1cccc(C(F)(F)F)c1
